Source: paper PMC12647645, “Structural interactions of BWC0977 with Klebsiella pneumoniae topoisomerase IV and biochemical basis of its broad-spectrum activity” (Communications Biology, 2025)
Converted amounts (≈) assume the structure as drawn. “And” between values parts separate entries of the source, which are not always exact repeats. Equal values may be shown once. Read-outs that look alike come from different tables or passages of the source.

Legend:
[1] = test system: multidrug-resistant (MDR) Gram-negative bacteria, Gram-positive bacteria, anaerobes, and biothreat pathogens; settings: diverse global panel; cited from earlier work
P. aeruginosa BAA 2797 = assay: microbe, parasite or virus in culture; assay type: cell-based; settings: Pseudomonas aeruginosa, BAA2797
A. baumannii = test system: A. baumannii; design: method as in ref 6 (Hameed P et al., 2024); settings: ref 6 (Hameed P et al., 2024); cited from earlier work
[2] = test system: E. coli MG1655 GyrA D82N, ParC D79N; assay: microbe, parasite or virus in culture; assay type: cell-based; settings: Escherichia coli
P. aeruginosa ATCC 27853 [3] = assay: MIC broth microdilution; assay type: cell-based; settings: Pseudomonas aeruginosa, ATCC27853
P. aeruginosa ATCC 27853 [4] = settings: >4× MIC; cited from earlier work
E. coli wild-type strain = assay: MIC, wild-type strain; assay type: cell-based; settings: Escherichia coli
[5] = test system: E. coli MG1655 GyrA WT, ParC D79N; assay: microbe, parasite or virus in culture; assay type: cell-based; settings: Escherichia coli
S. aureus = settings: ref 6 (Hameed P et al., 2024); cited from earlier work
E. coli BAA 2471 = assay: microbe, parasite or virus in culture; assay type: cell-based; settings: Escherichia coli, BAA2471
[6] = test system: A. baumannii ATCC 19606 resistant mutant colonies (mutant 1-5); assay: microbe, parasite or virus in culture; assay type: cell-based; settings: Acinetobacter baumannii
[7] = test system: E. coli MG1655 GyrA R121K, ParC WT; assay: microbe, parasite or virus in culture; assay type: cell-based; settings: Escherichia coli
P. aeruginosa BAA 2794 = assay: microbe, parasite or virus in culture; assay type: cell-based; settings: Pseudomonas aeruginosa, BAA2794
K. pneumoniae BAA 2784 = assay: microbe, parasite or virus in culture; assay type: cell-based; settings: Klebsiella pneumoniae, BAA2784
E. coli gyrase [8] = target: T1, E. coli gyrase (Escherichia coli, UniProt P0AES4+P0AES6); assay type: biochemical; settings: gyrase cleavage-complex assay
T1 construct: purchased Inspiralis
Description: Reactions were stopped by adding 3.8 μL of a stop solution containing 0.8 μL Proteinase K (20 mg/mL) and 3 μL SDS (2%), followed by incubation at 37 °C for 60 min. Afterward, 4 μL of STEB loading buffer was added, and samples were run on pre-stained 0.8% agarose gels containing 0.4 μg/mL ethidium bromide. […] The % nicked and linear DNA formed with varying compound concentrations was plotted for comparison.

E. coli gyrase [9] = target: T1, E. coli gyrase; assay: biochemical; assay type: biochemical; settings: for Gyrase supercoiling inhibition response: E. coli WT gyrase
P. aeruginosa = test system: P. aeruginosa; design: method as in ref 6 (Hameed P et al., 2024); settings: ref 6 (Hameed P et al., 2024); cited from earlier work
[10] = target: E. coli GyrA S83L mutant gyrase (Escherichia coli, UniProt P0AES4+P0AES6, S83L); assay: biochemical; assay type: biochemical; settings: for Gyrase supercoiling inhibition response: GyrA S83L gyrase
[11] = test system: E. coli MG1655 GyrA M120A, ParC M118A; assay: microbe, parasite or virus in culture; assay type: cell-based; settings: Escherichia coli
P. aeruginosa gyrase = P. aeruginosa gyrase (Pseudomonas aeruginosa, UniProt P48372+Q9I7C2); assay: biochemical; settings: for Gyrase supercoiling inhibition response: P. aeruginosa gyrase
Human topo IIα = Human topo IIα (Homo sapiens, UniProt P11388); assay: Human topo IIα decatenation assay; assay type: biochemical
Description: Human topo IIα (0.9 nM) and topo IIß (2.2 nM) decatenation assays were performed following the same protocol used for bacterial topoisomerase IV decatenation assays. The assay buffer was made of 50 mM Tris. HCl (pH 7.5), 125 mM NaCl, 10 mM MgCl2, 5 mM DTT, and 100 μg/mL albumin.

Cn1c(=O)ccc2ccc(F)c(CCNC[C@H]3CN(c4cnc5c(n4)NC(=O)CO5)C(=O)O3)c21 [BWC0977]
minimum inhibitory concentration (MIC90) range [1]: 0.03 to 2 µg/mL
MIC (P. aeruginosa BAA 2797): 0.25 µg/mL (≈ 0.534 µM)
MIC90 against diverse global isolates (A. baumannii): 1 µg/mL (≈ 2.13 µM)
MIC [2]: 7.5 µg/mL (≈ 16 µM)
MIC (P. aeruginosa ATCC 27853 [3]): 0.125 µg/mL (≈ 0.267 µM)
resistant colonies on exposure (P. aeruginosa ATCC 27853 [4]): no resistant colonies
MIC (E. coli wild-type strain): 0.01 µg/mL (≈ 0.0213 µM)
MIC [5]: 0.03 µg/mL (≈ 0.064 µM)
MIC90 against diverse global isolates (S. aureus): 0.03 µg/mL (≈ 0.064 µM)
MIC (E. coli BAA 2471): 0.5 µg/mL (≈ 1.07 µM)
MIC90 ([6]; ATCC19606, read-out: MIC 90 in (μg/mL), resistant mutant colony 1): 0.6 µg/mL (≈ 1.28 µM)
MIC90 ([6]; ATCC19606, read-out: MIC 90 in (μg/mL), resistant mutant colony 2): 0.07 µg/mL (≈ 0.149 µM)
MIC90 ([6]; ATCC19606, read-out: MIC 90 in (μg/mL), resistant mutant colony 3): 0.07 µg/mL (≈ 0.149 µM)
MIC90 ([6]; ATCC19606, read-out: MIC 90 in (μg/mL), resistant mutant colony 4): 0.07 µg/mL (≈ 0.149 µM)
MIC90 ([6]; ATCC19606, read-out: MIC 90 in (μg/mL), resistant mutant colony 5): 0.3 µg/mL (≈ 0.64 µM)
MIC [7]: 0.01 µg/mL (≈ 0.0213 µM)
MIC (P. aeruginosa BAA 2794): 0.125 µg/mL (≈ 0.267 µM)
MIC (K. pneumoniae BAA 2784): 0.125 µg/mL (≈ 0.267 µM)
type of DNA breaks induced (E. coli gyrase [8]): single-strand DNA breaks
IC50 (E. coli gyrase [9]): 4 ± 1 nM
Gyrase supercoiling inhibition response (E. coli gyrase [9]; compound 0.0003 μM, source data Fig 2A/6A, 0.0003 µM): 7.2 and 10.3 and 5.8
Gyrase supercoiling inhibition response (E. coli gyrase [9]; compound 0.0003 μM, source data Fig 2A/6A, listed as 977, 0.0003 µM): 10.30 and 5.78
Gyrase supercoiling inhibition response (E. coli gyrase [9]; compound 0.008 μM, source data Fig 2A/6A, 0.008 µM): 69.7 and 73.4
Gyrase supercoiling inhibition response (E. coli gyrase [9]; compound 0.008 μM, source data Fig 2A/6A, listed as 977, 0.008 µM): 73.65 and 69.70 and 73.41
Gyrase supercoiling inhibition response (E. coli gyrase [9]; compound 0.074 μM, source data Fig 2A/6A, 0.074 µM): 93.3 and 92.7
Gyrase supercoiling inhibition response (E. coli gyrase [9]; compound 0.074 μM, source data Fig 2A/6A, listed as 977, 0.074 µM): 89.29 and 93.34 and 92.67
Gyrase supercoiling inhibition response (E. coli gyrase [9]; compound 0.222 μM, source data Fig 2A/6A, 0.222 µM): 96.5 and 97.7 and 91.5
Gyrase supercoiling inhibition response (E. coli gyrase [9]; compound 0.222 μM, source data Fig 2A/6A, listed as 977, 0.222 µM): 97.67 and 91.52
Gyrase supercoiling inhibition response (E. coli gyrase [9]; compound 2 μM, source data Fig 2A/6A, 2 µM): 100.2 and 100.3 and 98.6
Gyrase supercoiling inhibition response (E. coli gyrase [9]; compound 2 μM, source data Fig 2A/6A, listed as 977, 2 µM): 100.30 and 98.60
higher inhibition potency compared to compound 17a (E. coli gyrase [9]; E. coli gyrase): ~ 20 fold
inhibition at 0.0003 µM (E. coli gyrase [9]; read-out: Gyrase supercoiling inhibition response, E. coli WT gyrase, compound 0.0003 μM, source data Fig 2A/6A): 7.23%
inhibition at 0.008 µM (E. coli gyrase [9]; read-out: Gyrase supercoiling inhibition response, E. coli WT gyrase, compound 0.008 μM, source data Fig 2A/6A): 73.7%
inhibition at 0.074 µM (E. coli gyrase [9]; read-out: Gyrase supercoiling inhibition response, E. coli WT gyrase, compound 0.074 μM, source data Fig 2A/6A): 89.3%
inhibition at 0.222 µM (E. coli gyrase [9]; read-out: Gyrase supercoiling inhibition response, E. coli WT gyrase, compound 0.222 μM, source data Fig 2A/6A): 96.5%
inhibition at 2 µM (E. coli gyrase [9]; read-out: Gyrase supercoiling inhibition response, E. coli WT gyrase, compound 2 μM, source data Fig 2A/6A): 100%
MIC90 against diverse global isolates (P. aeruginosa): 1 µg/mL (≈ 2.13 µM)
IC50 ([10]; Fig. 6, read-out: IC50 S83L gyrase supercoiling): 3 nM
Gyrase supercoiling inhibition response ([10]; compound 0.0005 µM, source data Fig 6A, 0.0005 µM): 7.40
Gyrase supercoiling inhibition response ([10]; compound 0.0014 µM, source data Fig 6A, 0.0014 µM): 20.69
Gyrase supercoiling inhibition response ([10]; compound 0.0041 µM, source data Fig 6A, 0.0041 µM): 57.16
Gyrase supercoiling inhibition response ([10]; compound 0.012 µM, source data Fig 6A, 0.012 µM): 82.23
Gyrase supercoiling inhibition response ([10]; compound 0.037 µM, source data Fig 6A, 0.037 µM): 88.47
Gyrase supercoiling inhibition response ([10]; compound 0.111 µM, source data Fig 6A, 0.111 µM): 97.88
Gyrase supercoiling inhibition response ([10]; compound 0.333 µM, source data Fig 6A, 0.333 µM): 98.84
Gyrase supercoiling inhibition response ([10]; compound 1 µM, source data Fig 6A, 1 µM): 98.71
Gyrase supercoiling inhibition response ([10]; compound 3 µM, source data Fig 6A, 3 µM): 96.44
potency shift relative to WT ([10]; quinolone-resistant S83L vs WT): < 3 fold
inhibition at 0.0014 µM ([10]; read-out: Gyrase supercoiling inhibition response, GyrA S83L gyrase, compound 0.0014 µM, source data Fig 6A): 35%
inhibition at 0.0041 µM ([10]; read-out: Gyrase supercoiling inhibition response, GyrA S83L gyrase, compound 0.0041 µM, source data Fig 6A): 60.7%
inhibition at 0.012 µM ([10]; read-out: Gyrase supercoiling inhibition response, GyrA S83L gyrase, compound 0.012 µM, source data Fig 6A): 74.3%
inhibition at 0.037 µM ([10]; read-out: Gyrase supercoiling inhibition response, GyrA S83L gyrase, compound 0.037 µM, source data Fig 6A): 90.2%
inhibition at 0.111 µM ([10]; read-out: Gyrase supercoiling inhibition response, GyrA S83L gyrase, compound 0.111 µM, source data Fig 6A): 91%
inhibition at 0.333 µM ([10]; read-out: Gyrase supercoiling inhibition response, GyrA S83L gyrase, compound 0.333 µM, source data Fig 6A): 97.8%
inhibition at 1 µM ([10]; read-out: Gyrase supercoiling inhibition response, GyrA S83L gyrase, compound 1 µM, source data Fig 6A): 99.5%
inhibition at 3 µM ([10]; read-out: Gyrase supercoiling inhibition response, GyrA S83L gyrase, compound 3 µM, source data Fig 6A): 97.9%
MIC [11]: 0.0625 µg/mL (≈ 0.133 µM)
IC50 (P. aeruginosa gyrase): 9.4 nM
Gyrase supercoiling inhibition response (P. aeruginosa gyrase; compound 0.0005 μM, source data Fig 2B, listed as 977, 0.0005 µM): 6.77
Gyrase supercoiling inhibition response (P. aeruginosa gyrase; compound 0.001 μM, source data Fig 2B, listed as 977, 0.001 µM): 9.59
Gyrase supercoiling inhibition response (P. aeruginosa gyrase; compound 0.004 μM, source data Fig 2B, listed as 977, 0.004 µM): 27.41
Gyrase supercoiling inhibition response (P. aeruginosa gyrase; compound 0.012 μM, source data Fig 2B, listed as 977, 0.012 µM): 48.08
Gyrase supercoiling inhibition response (P. aeruginosa gyrase; compound 0.037 μM, source data Fig 2B, listed as 977, 0.037 µM): 69.93
Gyrase supercoiling inhibition response (P. aeruginosa gyrase; compound 0.111 μM, source data Fig 2B, listed as 977, 0.111 µM): 87.28
Gyrase supercoiling inhibition response (P. aeruginosa gyrase; compound 0.333 μM, source data Fig 2B, listed as 977, 0.333 µM): 93.63
Gyrase supercoiling inhibition response (P. aeruginosa gyrase; compound 1 μM, source data Fig 2B, listed as 977, 1 µM): 99.48
Gyrase supercoiling inhibition response (P. aeruginosa gyrase; compound 3 μM, source data Fig 2B, listed as 977, 3 µM): 100.23
inhibition at 0.0005 µM (P. aeruginosa gyrase; read-out: Gyrase supercoiling inhibition response, P. aeruginosa gyrase, compound 0.0005 μM, source data Fig 2B): 12.6%
inhibition at 0.001 µM (P. aeruginosa gyrase; read-out: Gyrase supercoiling inhibition response, P. aeruginosa gyrase, compound 0.001 μM, source data Fig 2B): 16.5%
inhibition at 0.004 µM (P. aeruginosa gyrase; read-out: Gyrase supercoiling inhibition response, P. aeruginosa gyrase, compound 0.004 μM, source data Fig 2B): 32.4%
inhibition at 0.012 µM (P. aeruginosa gyrase; read-out: Gyrase supercoiling inhibition response, P. aeruginosa gyrase, compound 0.012 μM, source data Fig 2B): 61.3%
inhibition at 0.037 µM (P. aeruginosa gyrase; read-out: Gyrase supercoiling inhibition response, P. aeruginosa gyrase, compound 0.037 μM, source data Fig 2B): 85.1%
inhibition at 0.111 µM (P. aeruginosa gyrase; read-out: Gyrase supercoiling inhibition response, P. aeruginosa gyrase, compound 0.111 μM, source data Fig 2B): 97.4%
inhibition at 0.333 µM (P. aeruginosa gyrase; read-out: Gyrase supercoiling inhibition response, P. aeruginosa gyrase, compound 0.333 μM, source data Fig 2B): 99%
inhibition at 1 µM (P. aeruginosa gyrase; read-out: Gyrase supercoiling inhibition response, P. aeruginosa gyrase, compound 1 μM, source data Fig 2B): 99.8%
inhibition at 3 µM (P. aeruginosa gyrase; read-out: Gyrase supercoiling inhibition response, P. aeruginosa gyrase, compound 3 μM, source data Fig 2B): 103%
selectivity for bacterial enzymes over human topoisomerases IIα and IIβ (Human topo IIα): more than 5000 fold
IC50 (Human topo IIα; read-out: IC50 Human topo IIα decatenation): 113000 ± 13000 nM
